Measured values as given in patent US10570458B2, “Methods for diagnosis, prognosis and treatment of primary and metastatic basal-like breast cancer and other cancer types” (ONCONOSTIC TECHNOLOGIES, INC., priority 2009, dated 2020).
“Also recorded” adds a separate entry of the source.

Columns and labels:
[1] = tested on: ERα, PR, and IRS-1 in FOXC1-overexpressing MCF-7 cells; assay: Immunoblotting of ERα, PR and IRS-1; format: cell-based, human; conditions: 5 μM, 24 h
Description: Whole cell lysates for western blotting were generated by cell lysis buffer (50 mM Tris-HCl, pH 7.4, 150 mM NaCl, 2 mM EDTA, 1% NP-40, 10% glycerol) supplemented with a protease inhibitor cocktail (Sigma, St Louis, Mo.). Equal amounts of protein were separated by 10% SDS-PAGE and then transferred onto a nitrocellulose membrane. The remaining steps were conducted according to a standard immunoblotting protocol (Qu et al., 2009). Immunoblotting was done with polyclonal antibodies against p65, FOXC1, IRS1 (1:200; Santa Cruz Biotechnology), polyclonal antibodies against phospho-p65, p50, IκBα (1:1000; Cell Signal), or monoclonal antibodies against ERα (1:500; Novocastra Laboratories, Newcastle upon Tyne, UK), PR (1:500; DAKO, Carpinteria, Calif.). Anti-β actin (Sigma) was used at a 1:10000 dilution. After the primary antibody incubation, the membrane was again washed with PBST three times (5 min each) and then incubated with a horseradish peroxidase (HRP)-linked secondary antibody (Amersham, Piscataway, N.J.) at a dilution of 1:4000 in blocking solution. The membrane was washed and bands were visualized using chemiluminescence assays.

[2] = tested on: MCF-7 cells; assay: MTT cell proliferation assay, FOXC1-overexpressing vs control cells; format: cell-based, human
Description: MCF-7 and T47D human breast cancer cell lines were obtained from the Breast Center at Baylor College of Medicine. Cells were routinely maintained in Dulbecco's modified Eagle's medium (DMEM) supplemented with 10% fetal bovine serum (FBS), 2 mM glutamine, 50 IU/ml of penicillin, 50 μg/ml of streptomycin, and 10 μg/ml insulin. Cells were kept at 37° C. in a humidified incubator with 5% CO2. Tamoxifen and 17β-estradiol were from Sigma (St Louis, Mo.). The IKK small molecule inhibitor BMS-345541 was purchased from Calbiochem (Gibbstown, N.J.). For experiments involving estradiol and tamoxifen, cells were serum-starved overnight and then stimulated with the ER ligands for different time periods prior to cell proliferation assays. Cell viability was assessed by the 3-(4,5-dimethylthiazol-2-yl)-2,5-diphenyltetrazolium (MTT) assay. Cells were seeded in 24-well plates at 30% confluence and the MTT assay was performed one, two, three and four days after treatment. For each assay, 50 μl of MTT (5 mg/ml) were added to each well and cells were incubated at 37° C. for an additional 4 h. After centrifugation, the supernatant was carefully aspirated and 300 μl of DMSO (Sigma) were added to each well. Immediately after resolubilization, all plates were scanned at 575 nm on a microplate reader. The absorbance (A) value represented the number of live cells.

[3] = tested on: triple-negative patients; conditions: patients were a mix of basal-like positive and negative; cited from earlier work
[4] = tested on: FOXC1 expression; assay: FOXC1 expression upon inhibition of Wnt/β catenin signaling; format: cell-based, human; conditions: Wnt inhibition, dose and time dependent, particularly pronounced in BT549 mammosphere cultures
[5] = tested on: BT549 cancer stem cells in mammosphere culture; assay: Mammosphere formation; format: cell-based, human
Text: FIGS. 47A-47B show mammosphere formation upon inhibition of Wnt/β catenin signaling by iCRT-3.
FIGS. 49A-49B show mammosphere formation upon simultaneous inhibition of Wnt/β catenin signaling by addition of iCRT-3 and inhibition of NF-κB signaling.

[6] = tested on: stem related genes and NF-κB signaling in BT549 mammosphere cells; assay: qRT-PCR profiling of residual mammosphere cells after Wnt inhibition; format: cell-based, human
Text: FIG. 48 is a bar graph showing the fold change of mRNA expression of the stem related genes BMI-1, FOXC1, KIT, NANOG, OCT4, and SOX2 upon inhibition of Wnt/β catenin signaling by addition of iCRT-3 on day 4 (left hand bar) and day 7 (right hand bar).

[7] = tested on: BT549 basal-like/claudin-low cells; assay: Cell viability (relative survival) with increasing doses of iCRT3; format: cell-based, human; conditions: BT549 (high constitutive FOXC1 expressor) compared to MCF7 (luminal) or SKBR3 (HER2) cell lines
Text: (§1) FIGS. 45A-45B show the relative survival of representative breast cancer cell lines upon inhibition of Wnt/β catenin signaling with increasing doses of the inhibitor iCRT3.

[8] = tested on: HS578T basal-like/claudin-low cells; assay: as above; format: cell-based, human; conditions: HS578T (high constitutive FOXC1 expressor) compared to MCF7 (luminal) or SKBR3 (HER2) cell lines
Text: as §1

[9] = tested on: FOXC1 expression in MDA-MB-231 basal-like/claudin-low cell line; assay: FOXC1 expression upon exposure to Wnt3a; format: cell-based, human; conditions: MDA-MB-231 (low constitutive FOXC1 expressor) exposed to canonical Wnt ligand
Text: FIGS. 44A-44D show the correlation between FOXC1 expression and Wnt activity upon biological and pharmacologic inhibition and stimulation with a natural ligand.

Cc1ccc2nc(NCCN)c3ncc(C)n3c2c1 [BMS-345541]
levels of ERα, PR, and IRS-1 [1]: elevated levels | sensitivity of cell proliferation to NF-κB inhibition ([2]; FOXC1-overexpressing vs vector MCF-7 cells, 5 μM): sensitized

CC(C)C[C@H](NC(=O)[C@H](Cc1ccccc1)NC(=O)c1cnccn1)B(O)O [bortezomib]
outcome of clinical trial [3]: inconclusive results

C[C@]12CC[C@@H]3c4ccc(O)cc4CC[C@H]3[C@@H]1CC[C@@H]2O [estradiol, 17β-estradiol]
increase of cell growth induced by treatment ([2]; FOXC1-overexpressing vs control MCF-7 cells, serum-starved, 10^−8 M): diminished the increase of cell growth

CCc1ccc(-c2nc(CSCC(=O)NCCc3ccccc3)c(C)o2)cc1 [iCRT3, 2-[[[2-(4-ethylphenyl)-5-methyl-4-oxazolyl]methyl]thio]-N-(2-phenylethyl)acetamide]
FOXC1 expression level [4]: decrease in FOXC1 expression level | FOXC1 expression level ([4]; listed as iCRT-3): decreased FOXC1 expression | mammosphere formation ability of persisting cells ([5]; BT549, Wnt inhibition alone, after an initial 4 day incubation period): renewed enhancement of mammosphere formation ability | mammosphere formation efficiency ([5]; BT549 cells, Wnt inhibition alone vs DMSO): reduced mammosphere formation efficiency | FOXC1 positive cells ([6]; cells persisting after Wnt inhibition): depletion of FOXC1 positive cells | expression of embryonic stem cell transcription factors OCT4, SOX2 and NANOG ([6]; cells persisting after Wnt inhibition (day 4, day 7)): pronounced up regulation | NF-κB signaling (qRT-PCR based pathway activation analysis) ([6]; residual cells that withstood Wnt inhibition): marked activation of NF-κB signaling | sensitivity to treatment (decreased cell viability) [7]: more sensitive | sensitivity to treatment (decreased cell viability) [8]: more sensitive

CC/C(=C(\c1ccccc1)c1ccc(OCCN(C)C)cc1)c1ccccc1 [tamoxifen]
sensitivity of cell proliferation to antiestrogen treatment ([2]; FOXC1-overexpressing vs control MCF-7 cells, 10^−6 M, regular medium): less sensitive

B1: Wnt3a: a canonical Wnt signaling ligand (protein, UniProt P56704 19-352, looked up)
Protein Wnt-3a: SYPIWWSLAVGPQYSSLGSQPILCASIPGLVPKQLRFCRNYVEIMPSVAEGIKIGIQECQHQFRGRRWNCTTVHDSLAIFGPVLDKATRESAFVHAIASAGVAFAVTRSCAEGTAAICGCSSRHQGSPGKGWKWGGCSEDIEFGGMVSREFADARENRPDARSAMNRHNNEAGRQAIASHMHLKCKCHGLSGSCEVKTCWWSQPDFRAIGDFLKDKYDSASEMVVEKHRESRGWVETLRPRYTYFKVPTERDLVYYEASPNFCEPNPETGSFGTRDRTCNVSSHGIDGCDLLCCGRGHNARAERRREKCRCVFHWCCYVSCQECTRVYDVHTCK
FOXC1 expression [9]: increased expression of FOXC1; also recorded: increase in FOXC1 expression
